Here are results for 24 molecules from patent US7022699B2, “Cyclohexenyl phenyl diazepines vasopressin and oxytocin receptor modulators” (Wyeth, priority 2001, dated 2006).

For one experiment, the target named is T1, human vasopressin V2 receptor subtype (Homo sapiens, UniProt P30518).
T1 construct: host or cells: CHO cells, stably transfected (pZeoSV vector); membranes
T1 sequence (P30518 whole entry): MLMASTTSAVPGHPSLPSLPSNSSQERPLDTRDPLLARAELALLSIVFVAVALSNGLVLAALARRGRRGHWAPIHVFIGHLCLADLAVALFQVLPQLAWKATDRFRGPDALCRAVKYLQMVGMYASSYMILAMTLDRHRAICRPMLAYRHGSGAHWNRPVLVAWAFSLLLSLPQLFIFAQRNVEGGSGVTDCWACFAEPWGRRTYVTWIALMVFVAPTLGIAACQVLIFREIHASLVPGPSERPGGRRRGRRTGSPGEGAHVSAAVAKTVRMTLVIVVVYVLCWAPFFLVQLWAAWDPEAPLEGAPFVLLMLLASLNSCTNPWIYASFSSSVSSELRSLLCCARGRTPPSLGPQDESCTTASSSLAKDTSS
Briefly: Vasopressin binding in CHO cell membranes expressing human vasopressin V2 subtype receptors ([3H]arginine vasopressin). The following applies: 100 nM, values without parentheses. An excerpt: Vasopressin Binding in Chinese Hamster Ovary Cell Membranes Expressing Human Vasopressin V2 Subtype Receptors
Chinese Hamster Ovary (CHO) cells stably transfected with the human V2 subtype receptors were obtained from M. Thibonnier, Case Western Reserve University School of Medicine, Cleveland, Ohio.
A. Passaging and Amplification of Cells:
CHO cells transfected with the human vasopressin V2 subtype receptors obtained from M. Thibonnier (pZeoSV vector) are allowed to grow to confluency (approx. >90%) in T-150 flasks under sterile conditions, in a cell culture medium of F-12 Nutrient Mixture (HAM) with L-glutamine (Gibco Cat. #11765-054) containing 15 mM HEPES (Gibco Cat. #15630-080), 1% antibiotic/antimycotic (add 5 mL 100×, Gibco Cat. #15240-062 per 500 mL F-12), 250 μg/mL Zeocin (add 1.25 mL of 100 mg/mL Invitrogen R-250-01 per 500 mL F-12) and 10% Fetal Bovine Serum (Qualified, heat inactivated, Gibco Cat. #16140-063). The medium is removed by aspiration and the cells washed with 10 mL of Hank's Balanced Salt solution (Gibco Cat. #14175-095). The salt solution is removed by aspiration and the cells trypsinized with 5 mL of trypsin-EDTA (0.05% trypsin, 0.53 mM EDTA-4Na, Gibco Cat. #25300-070) for 1 min. The trypsin is removed by aspiration and the cells dislodged by tapping. Cell Culture medium (e.g. 30 mL for 1:30 split) is immediately added and mixed well to inactivate trypsin. 1 mL of detached cells is added to new culture flasks containing fresh Cell Culture medium (e.g. into 25 mL per T-150 flask), and mixed gently. The cells are incubated at 37° C. in 5% CO2. The medium is changed at 3 to 4 day interval (or as appropriate). The cells grow to confluency (approx. >75%–95%) within 7–8 days. All steps are done under sterile conditions. B. Membrane Preparation: The cells are washed twice gently with Hank's Balanced Salt solution (e.g. use 10 mL per T-150 flask). The excess solution is removed and the cells bathed for 15–30 min. in an enzyme-free Cell Dissociation Buffer (e.g. use 8 mL Hank's Based, Gibco Cat. # 13150-016 per T-150 flask) until cells are loosened. The contents are transferred to centrifuge tubes (50 mL size) kept in ice bath. All subsequent steps are done at 4° C. The tubes are centrifuged at 300×g for 15 min (1380 rpm on SORVAL, Model RT6000D, using rotor for 50 mL tubes). The supernatant is discarded and the cells suspended in homogeneizing buffer (10 mM Tris-HCl containing 0.25 M sucrose and 1 mM EDTA, pH 7.4) ensuring that the volume of the buffer is about ten times the volume of the cell pellet. The cells are pooled into a centrifuge tube (50 mL) and homogenized with Polytron at setting 6 for 10 sec. The homogenate is transferred into a Potter-Elvjehm homogeneizer and homogenized with 3 strokes. The homogenate is centrifuged at 1500×g for 60 min at 4° C. (3100 rpm using SORVAL, model RT6000D, using rotor for 50 mL tubes). The pellet is discarded. The supernatant is centrifuged at 100,000×g for 60 min. at 4° C. (Beckman L8-80M ultracentrifuge; spin at 37,500 rpm with rotor type 70 Ti for 50 mL tubes; 38,000 rpm with type 80Ti for 15 mL tubes; or 35,800 rpm with rotor type 45Ti). The supernantant is discarded and the pellet suspended in 3 to 4 mL of Tris buffer (50 mM TRIS-HCl, pH 7.4). The protein content is estimated by the Bradford or Lowry method. The volume of the membrane suspension is adjusted with the membrane buffer (50 mM Tris-HCl containing 0.1% BSA and 0.1 mM PMSF) to give 3.0 mg/mL (or as appropriate) of protein. The membranes are aliquoted and stored at −70° C. C. Radioligand Binding Assay:
In wells of a 96-well format microtiter plate, is added 90, 110 or 130 μL (to make up a final volume of 200 μL) of assay buffer containing 50 mM of Tris-HCl (pH 7.4), […], 1 mg % aprotinin, 1 mg % leupeptin, 2 mg % 1,10-phenanthroline, 10 mg % trypsin inhibitor, and 0.1 mM PMSF. The inhibitors are added on the day of the experiment. […]
By inhibition is commonly meant the change of the read-out against control, counted positive when it falls. `CC1=C(c2ccc(C(=O)N3Cc4cccn4Cc4ccccc43)cc2C)CCCC1O` (racemic) [Example 5, (10,11-Dihydro-5H-pyrrolo[2,1-c][1,4]benzodiazepin-10-yl)-[4-(3-hydroxy-2-methyl-cyclohex-1-en-1-yl)-3-methyl-phenyl]-methanone]: the inhibition at 0.1 µM came out at 2%.

For the molecule `CC1=C(c2ccc(C(=O)N3Cc4cccn4Cc4ccccc43)cc2C)CCC[C@H]1O` (single isomer, unassigned) [Example 41], the inhibition at 0.1 µM was found to be 40%.

`CC1=C(c2ccc(C(=O)N3Cc4cccn4Cc4ccccc43)cc2C)CCC[C@@H]1O` (single isomer, unassigned) [Example 43]: the inhibition at 0.1 µM amounted to 45%.

On to `Cc1cc(C(=O)N2Cc3cccn3Cc3ccccc32)ccc1C1=CCCCC1` [Example 2, (10,11-Dihydro-5H-pyrrolo[2,1-c][1,4]benzodiazepin-10-yl)-(4-cyclohex-1-en-1-yl-3-methyl-phenyl)-methanone], for which the inhibition at 0.1 µM came out at 42%.

Turning to `CC1=C(c2ccc(C(=O)N3Cc4cccn4Cc4ccccc43)cc2C)CCCC1=O` [Example 4, 3-[2-Methyl-4-(5H-pyrrolo[2,1-c][1,4]benzodiazepin-10(11H)-yl-carbonyl)phenyl]-2-methyl-cyclohex-2-en-1-one], the inhibition at 0.1 µM was determined as 74%.

As for `CC1=C(c2ccc(C(=O)N3Cc4cccn4Cc4ccccc43)cc2C)CCC[C@H]1O` [Example 6, (10,11-Dihydro-5H-pyrrolo[2,1-c][1,4]benzodiazepin-10-yl)-[4-((3R)-3-hydroxy-2-methyl-cyclohex-1-en-1-yl)-3-methyl-phenyl]-methanone], the inhibition at 0.1 µM is 49%.

For `COc1cc(C2=CCCc3ccccc32)c(Cl)cc1C(=O)N1Cc2cccn2Cc2ccccc21` [Example 8, 10-[5-Chloro-4-(3,4-dihydro-naphthalen-1-yl)-2-methoxybenzoyl]-10,11-dihydro-5H-pyrrolo[2,1-c][1,4]benzodiazepine], the inhibition at 0.1 µM came to 77%.

Take `COc1cc(C2=C(C)C(=O)CCC2)c(Cl)cc1C(=O)N1Cc2cccn2Cc2ccccc21` [Example 9, 3-[2-Chloro-5-methoxy-4-(5H-pyrrolo[2,1-c][1,4]benzodiazepin-10(11H)-yl-carbonyl)phenyl]-2-methyl-cyclohex-2-en-1-one]: the inhibition at 0.1 µM was 69%.

For `O=C(c1ccc(C2=CCCCC2)cc1Cl)N1Cc2cccn2Cc2ccccc21` [Example 10, (10,11-dihydro-5H-pyrrolo[2,1-c][1,4]benzodiazepin-10-yl)-[2-chloro-4-(cyclohex-1-en1-yl)-phenyl]-methanone], the inhibition at 0.1 µM turned out to be 65%.

`O=C(c1ccc(C2=CCCc3ccccc32)cc1Cl)N1Cc2cccn2Cc2ccccc21` [Example 11, (10,11-Dihydro-5H-pyrrolo[2,1-c][1,4]benzodiazepin-10-yl)-[2-chloro-4-(3,4-dihydro-naphthalen-1-yl)-phenyl]-methanone]: the inhibition at 0.1 µM was 90%.

As for `CC1(C)CCCC=C1c1ccc(C(=O)N2Cc3cccn3Cc3ccccc32)c(Cl)c1` [Example 12, (10,11-Dihydro-5H-pyrrolo[2,1-c][1,4]benzodiazepin-10-yl)-[2-chloro-4-(6,6-dimethyl-cyclohex-1-en-1-yl)-phenyl]-methanone], the inhibition at 0.1 µM was found to be 82%.

For the molecule `CC1=C(c2ccc(C(=O)N3Cc4cccn4Cc4ccccc43)c(Cl)c2)CCCC1=O` [Example 13, (10,11-Dihydro-5H-pyrrolo[2,1-c][1,4]benzodiazepin-10-yl)-[2-chloro-4-(2-methyl-3-oxo-cyclohex-1-en-1-yl)-phenyl]-methanone], the inhibition at 0.1 µM is 55%.

For the molecule `CC1=C(c2ccc(C(=O)N3Cc4cccn4Cc4ccccc43)c(Cl)c2)CCCC1O` (stereo not drawn) [Example 14, (10,11-Dihydro-5H-pyrrolo[2,1-c][1,4]benzodiazepin-10-yl)-[2-chloro-4-(3-hydroxy-2-methyl-cyclohex-1-en-1-yl)-phenyl]-methanone], the inhibition at 0.1 µM came to 38%.

As to `CC1(C)CCCC=C1c1ccc(C(=O)N2Cc3cccn3Cc3ccccc32)cc1` [Example 17, (10,11-Dihydro-5H-pyrrolo[2,1-c][1,4]benzodiazepin-10-yl)-[4-(6,6-dimethyl-cyclohex-1-en-1-yl)-phenyl]-methanone], the inhibition at 0.1 µM was found to be 43%.

`O=C(c1ccc(C2=CCCc3ccccc32)cc1)N1Cc2cccn2Cc2ccccc21` [Example 18, (10,11-Dihydro-5H-pyrrolo[2,1-c][1,4]benzodiazepin-10-yl)-[4-(3,4-dihydro-naphthalen-1-yl)-phenyl]-methanone]: the inhibition at 0.1 µM was 61%.

In the case of `CC1=C(c2ccc(C(=O)N3Cc4cccn4Cc4ccccc43)cc2)C(C)CCC1` (stereo not drawn) [Example 19, (10,11-Dihydro-5H-pyrrolo[2,1-c][1,4]benzodiazepin-10-yl)-[4-(2,6-dimethyl-cyclohex-1-en-1-yl)-phenyl]-methanone], the inhibition at 0.1 µM was 5%.

For the molecule `CC(C)(C)C1CCCC=C1c1ccc(C(=O)N2Cc3cccn3Cc3ccccc32)cc1` (stereo not drawn) [Example 20, (10,11-5H-Dihydro-pyrrolo[2,1-c][1,4]benzodiazepin-10-yl)-[4-(6-tert-butyl-cyclohex-1-en-1-yl)-phenyl]-methanone], the “V2 % inhibition @ 100 nM” value turned out to be 10%.

Turning to `O=C(c1ccc(C2=CCC3CCC2C3)cc1)N1Cc2cccn2Cc2ccccc21` (stereo not drawn) [Example 21], the “V2 % inhibition @ 100 nM” value was 5%.

With `CC1(C)C2CC=C(c3ccc(C(=O)N4Cc5cccn5Cc5ccccc54)cc3)C1C2` (stereo not drawn) [Example 22, (10,11-Dihydro-5H-pyrrolo[2,1-c][1,4]benzodiazepin-10-yl)-[4-(6,6-dimethyl-bicyclo[3.1.1]hept-2-en-2-yl)-phenyl]-methanone], the inhibition at 0.1 µM was found to be 17%.

Still in this experiment, the particulars now being: values in parentheses.
Usually IC50 stands for the concentration at which inhibition is half-maximal. With `COc1cc(C2=CCCCC2)c(Cl)cc1C(=O)N1Cc2cccn2Cc2ccccc21` [Example 1, 10-(5-Chloro-4-cyclohex-1-en-1-yl-2-methoxybenzoyl)-10,11-dihydro-5H-pyrrolo[2,1-c][1,4]benzodiazepine], the IC50 is 176 nM.

Regarding `Cc1cc(C(=O)N2Cc3cccn3Cc3ccccc32)ccc1C1=CCCc2ccccc21` [Example 3, (10,11-Dihydro-5H-pyrrolo[2,1-c][1,4]benzodiazepin-10-yl)-[4-(3,4-dihydro-naphthalen-1-yl)-3-methyl-phenyl]-methanone], the IC50 was determined as 66 nM.

As to `CC1=C(c2ccc(C(=O)N3Cc4cccn4Cc4ccccc43)cc2)CCCC1` [Example 7, (10,11-Dihydro-5H-pyrrolo[2,1-c][1,4]benzodiazepin-10-yl)-[4-(2-methyl-cyclohex-1-en-1-yl)-phenyl]-methanone], the IC50 came out at 162 nM.

With `O=C(c1ccc(C2=CCCCC2)cc1)N1Cc2cccn2Cc2ccccc21` [Example 15, (10,11-Dihydro-5H-pyrrolo[2,1-c][1,4]benzodiazepin-10-yl)-(4-cyclohex-1-en-1-yl-phenyl)-methanone], the IC50 was found to be 774 nM.

Consider `CC1CCCC=C1c1ccc(C(=O)N2Cc3cccn3Cc3ccccc32)cc1` (stereo not drawn) [Example 16, (10,11-Dihydro-5H-pyrrolo[2,1-c][1,4]benzodiazepin-10-yl)-[4-(6-methyl-cyclohex-1-en-1-yl)-phenyl]-methanone], for which the IC50 stood at 295 nM.
